Key:
[1] = system: nerves; test: Intraoperative topical application at the surgical site, fluorescence nerve imaging in murine model; type: in vivo, mouse
Procedure: (§1) Commercial small animal system: A fluorescence stereomicroscope (SteREO Lumar V12, Carl Zeiss Inc., Thornwood, N.Y.) equipped with a multispectral imaging camera (Nuance, CRI, Woburn, Mass.) was used with an exposure time of 1-5 s. Excitation of the flurophores was achieved using a filter centered at 406 nm with a 15 nm bandwidth. The fluorescence emission spectrum was recorded at wavelengths ranging from 420 to 720 nm at 10-nm increments using the attached multispectral camera. Alternatively, we had also used an emission filter with 550 long pass filter (in the absence of multispectral camera).
(§2) The laparoscope module comprises a standard 10 mm zero degree surgical laparoscope with 70 degree field of view, a 4 mm diameter, 1800 mm long laparoscope light guide, 35 mm video coupler, a compact 90 gram, 659×494 pixel GigE color camera (acA640-90gc Basler, Ahrensburg, Germany), and a 405 nm blocking filter (BLP01-405R Semrock, Rochester, N.Y.), which has >97% transmission from 420 to 800 nm. The ⅓″ format sensor provides high sensitivity with 7.4 μm pixel size and adequate field of view (40 degrees out of 70 degrees passed by the laparoscope). The video coupler interfaces with the eyepiece of the laparoscope providing an interchangeable set up for different types of laparoscopes. The 405 nm filter is secured directly in front of the image sensor with a c-mount retaining ring. The camera threads onto the video coupler directly.
Illumination for white light and fluorescence imaging is coupled into a single light guide using conventional optics. The light coupling module consists of two 32 mm aspheric lenses to collimate a white light LED and a 500 mW, 405 nm blue laser diode coupled into a multimode fiber with 400 μm diameter (Shanghai Laser & Optics Century Co., Ltd., China). The LED spectrum is filtered with a 450 nm long pass filter (NT49-819, Edmund Optics, Barrington, N.J.) to minimize excitation of the fluorescent agent, while maintaining the white light color spectrum. The LED and laser are combined with a 425 nm dichroic mirror (DMLP425R, Thorlabs). The combined illumination is coupled into the light guide with a third 32 mm aspheric lens (ACL4532, Thorlabs). The maximum irradiance from the LED and 405 nm laser are 2.0 mW/cm2 and 7.3 mW/cm2, respectively, at 25 mm from the tip of the laparoscope. Formulation, dosing, and kinetics for in vivo imaging following systemic IV injection of contrast agent in animal model:
Several different formulations were tested, including but not limited to: • Formulation 1: 10% PEG-300; 20% PG; 0.4% Carbopol; 69.6% water; • Formulation 2: 10% DMSO; 20% PEG-800; 20% PG; 0.1% Polysorbate-80; 49.9% Water; • Formulation 3: 30% PEG-300; 5% DMSO; 10% PVA; 55% water; • Formulation 4: 30% PEG-300; 10% PVA; 60% water; • Formulation 5: 30% PEG-300; 5% DMSO; 30% Pluronic F-68; 0.1% Polysorbate-80; 34.9% water; • Formulation 6: 20% PEG-300; 10% PG; 5% PVP; 5% Laurocapram; 60% water; • Formulation 7: 20% PEG-300; 10% PG; 5% PVP; 5% Laurocapram; 5% EtOH; 5% oleic acid; 10% Tween-80; 40% water; where: PVA=polyvinyl alcohol; PVP=polyvinyl pyrrolidone; and PEG=polyethylene glycol. […]
Topically administered nerve labeling dyes were also able to label nerves in a living animal. The fluorescence from nerves can be detected within minutes after intraoperative topical application. Representative white light and fluorescence images of topically administered FORMULA I(f) in a mouse are shown in FIG. 2A (white light) and FIG. 2B (fluorescence). […]

[2] = system: rat nerve tissue sections; test: Ex vivo labeling of cryosectioned nerve tissue; settings: 10 uM, 1 h, buffer with 10% Cremophor EL and 65% rat serum in PBS
From the text: Various nerves were harvested from male Sprague Dawley rats. Tissue was fixed by perfusion and post-fixed with 10% neutral buffered formalin. Following post-fixation, tissue was cryoprotected in a 20% sucrose solution made in phosphate buffered saline (PBS). Nerves were then flash-frozen using methanol and dry ice in OCT media. In some cases, polyvinylidene fluoride membranes were used to help keep the nerves vertical in the OCT media. 5-10 micron section were sliced on a Leica microtome and stored in a −80° C. freezer prior to staining with agents (1)-(5).
For ex vivo staining of nerve sections, the slides were rinsed in PBS (3×5 min). Contrast agent (with a final concentration of 10 uM) was added onto the tissue in a buffer containing 10% Cremophor EL and 65% rat serum in PBS. The slides were incubated for 1 h in a dark, humid chamber after which they were washed with PBS (3×5 min), cover-slipped, and imaged using a custom filter cube (excitation filter: 387 nm with 11 nm band pass, 409 nm dichroic mirror; emission filter: 409 nm long pass). A buffer only control was also performed using exactly the same procedure to determine autofluorescence under the same settings.
Molecules that are related to the “push-pull” core structure of this class of compound would also benefit from this new method of application. The following is an example of ex vivo labeling of resected nerve tissue. In here, compounds used to stain cryo sectioned nerve tissue from rats.

[3] = system: sciatic nerve; test: Kinetics of uptake and clearance after systemic IV injection, in vivo fluorescence imaging; design: species or system murine; settings: IV injection 16.6 mg/kg
Procedure: as §1
(§3) For systemic administration by IV injection, the contrast agents were formulated using the following excipients: 5-15% propylene glycol (Fisher P355-1), 5-30% 2-hydroxypropyl-β-cyclodextrin (2-HPβCD, Sigma H5784) and 70-90% distilled/deionized water. In some cases, PEG-300 and DMSO were also added. The IV formulation was brought to a final pH of 7.4 using 1M of hydrochloric acid.
Specifically, IV formulation for FORMULA I(f) consisted of 80% distilled/deionized water, 10% 2-hydroxypropyl-β-cyclodextrin (2-HPβCD, Sigma H5784), and 10% propylene glycol (Fisher P355-1). […]
A dose of 16.6 mg/kg of FORMULA I(f) was used for measuring the nerve fluorescence at 0.5, 1, 2, 3 and 4 hours after IV injection. […]

[4] = system: nerve; test: Intraoperative topical application in porcine surgical model, real-time fluorescence imaging; type: in vivo; settings: pig
From the text: as §2
Illumination for white light and fluorescence imaging is coupled into a single light guide using conventional optics. The light coupling module consists of two 32 mm aspheric lenses to collimate a white light LED and a 500 mW, 405 nm blue laser diode coupled into a multimode fiber with 400 μm diameter (Shanghai Laser & Optics Century Co., Ltd., China). The LED spectrum is filtered with a 450 nm long pass filter (NT49-819, Edmund Optics, Barrington, N.J.) to minimize excitation of the fluorescent agent, while maintaining the white light color spectrum. […]

[5] = Solubility check of the IV formulation; type: physicochemical; settings: propylene glycol, 2-HPβCD, water, pH 7.4; visual, centrifugation, buffer dissolution, dynamic light scattering
Procedure: as §3
Specifically, IV formulation for FORMULA I(f) consisted of 80% distilled/deionized water, 10% 2-hydroxypropyl-β-cyclodextrin (2-HPβCD, Sigma H5784), and 10% propylene glycol (Fisher P355-1).

| SMILES | nerve labeling by topical application ([1]; mouse, small animal commercial instrument) | fluorescent staining of nerve tissue sections [2] | best nerve-to-muscle ratio ([3]; 1 h post-injection, murine model) | time of maximum sciatic nerve and adipose tissue fluorescence ([3]; measured at 0.5, 1, 2, 3 and 4 hours) [h] | topical dose that effectively visualizes fluorescent nerves ([1]; Formulation 6, incubated 3 minutes, irrigated with saline, mouse model) [mg] | penetration into the nerve bundle, fluorescence microscopy of cryosectioned sciatic nerve ([1]; after topical application, irrigation and excision, 15 micron sections, murine model) | fluorescence intensity from surrounding muscle tissue, topical versus systemic administration ([1]; topical about 0.1 milligrams in Formulation 4 versus IV about 16 mg/kg, multispectral imaging, murine model) | detection of very fine nerve fibers in a brachial plexus branch ([1]; topical in Formulation 4, 5 minutes, irrigated with sterile saline, dual-mode laparoscopic instrument, mouse) | nerve visibility under fluorescence imaging versus white light ([4]; 0.3 milligrams in Formulation 6, retroperitoneal area, 3 minutes, saline irrigation) | nerve visibility under fluorescence guidance versus white light ([4]; 4 milligrams in Formulation 4, 5 minutes, warm saline irrigation) | solubility in the IV formulation [5] |
| --- | --- | --- | --- | --- | --- | --- | --- | --- | --- | --- | --- |
| COc1cc(/C=C/c2ccc(C#N)cc2)ccc1/C=C/c1ccc(N)cc1 [FORMULA I(d)] | fluorescence nerve labeling | most robust fluorescent staining | – | – | – | – | – | – | – | – | – |
| COc1cc(/C=C/c2ccc(S(C)(=O)=O)cc2)ccc1/C=C/c1ccc(N)cc1 [FORMULA I(e)] | – | most robust fluorescent staining | – | – | – | – | – | – | – | – | – |
| COc1cc(/C=C/c2ccc(S(=O)(=O)N3CCN(CCO)CC3)cc2)ccc1/C=C/c1ccc(N)cc1 [FORMULA I(f)] | – | most robust fluorescent staining | 3.7 | 1 | 0.01 | donut-shaped myelin bundles are stained | lower across all the emission wavelengths | more readily detected under fluorescence guidance | more pronounced under fluorescence imaging compared to white light imaging | highly detectable under fluorescence guidance | Complete solubility |
